Experimental data from patent EP0505937A1, “Flavone derivatives, a process for the preparation thereof and pharmaceutical compositions containing them” (GEYMONAT S.p.A., priority 1991, dated 1992).
Like-named read-outs stand apart in the source and are kept apart here.

Target: T1, porcine pancreatic elastase (Sus scrofa, UniProt P00772)
T1 construct: purchased Sigma n.E. 0.127
Experiment: antielastase activity (method of Bieth and coll., cleavage of N-succinyl-L-alanyl-L-alanyl-L-alanyl-para-nitroanilide, UV at 410 nm)
Assay type: biochemical
Procedure: The antielastase activity of compounds (I) was evidenced by the method described by Bieth and coll. (Biochim. med. [formula] 350 (1974)), with slight changes when the test compounds were poorly water-soluble.
The determination of the antielastase activity was carried out using porcine pancreatic elastase (90 U/mg/weight; 120 U/mg protein-biuret-n.E. 0.127 Sigma) as the enzyme in solution. The enzyme-containing solution was prepared dissolving the enzyme in 0,2 M phosphate buffer, pH 8, to a final concentration of 1 microgram/ml.
The substrate solution was N-succinyl-L-alanyl-L-alanyl-L-alanyl-para-nitroanilide (available from Sigma cat. N.S. 4760). The substrate was dissolved in dimethylsulfoxide to a concentration of […] (125 mM).
The procedure to determine the antielastase activity consisted of the following steps: • 2,9 ml of the enzyme solution with antielastase activity were placed into a quartz cuvette with 10 mm optical path, then 0,5 ml of bidistilled water were added. This standard solution was subsequently added with the different solutions of the various inhibitors.
The test solutions (standard and standard + inhibitor) were incubated at 30°C for 10', then 20 µl of substrate were added and the solution in the cuvette was stirred. The UV spectrum was recorded at 410 nm for 10' with a Beckman mod. 24 spectrophotometer against a blank consisting of the same enzyme-free standard solution.

[1] = enzyme 1 microgram/ml in 0,2 M phosphate buffer, pH 8, incubated at 30°C for 10', read-out: I₅₀ (converted)

T1 sequence (P00772 27-266): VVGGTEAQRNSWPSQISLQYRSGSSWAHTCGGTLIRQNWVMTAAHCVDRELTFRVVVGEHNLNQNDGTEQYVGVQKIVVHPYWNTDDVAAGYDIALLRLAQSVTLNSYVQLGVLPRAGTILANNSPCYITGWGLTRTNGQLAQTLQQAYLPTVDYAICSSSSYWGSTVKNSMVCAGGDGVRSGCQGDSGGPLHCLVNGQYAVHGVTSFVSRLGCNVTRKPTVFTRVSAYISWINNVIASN

Structure (SMILES)	IC50 [1]	also measured
COc1ccc([C@@H]2CC(=O)c3c(O)cc(O[C@@H]4O[C@H](CO[C@@H]5O[C@@H](C)[C@H](O)[C@@H](O)[C@H]5O)[C@@H](O)[C@H](O)[C@H]4O)cc3O2)cc1O [Esperidin]	–	IC50: 934 µM
COc1ccc(-c2cc(=O)c3c(O)cc(O[C@@H]4O[C@H](CO[C@@H]5O[C@@H](C)[C@H](O)[C@@H](O)[C@H]5O)[C@@H](O)[C@H](O)[C@H]4O)cc3o2)cc1OCCO [Hydrosmin, 3'-hydroxyethyldiosmin]	955 µM	–
C[C@@H]1O[C@@H](OC[C@H]2O[C@@H](Oc3c(-c4ccc(O)c(O)c4)oc4cc(O)cc(O)c4c3=O)[C@H](O)[C@@H](O)[C@@H]2O)[C@H](O)[C@H](O)[C@H]1O [Rutin]	983 µM	–
COc1ccc(-c2cc(=O)c3c(O)cc(O[C@@H]4O[C@H](CO[C@@H]5O[C@@H](C)[C@H](O)[C@@H](O)[C@H]5O)[C@@H](O)[C@H](O)[C@H]4O)cc3o2)cc1O [Diosmin]	–	antielastase activity (at the minimum concentration obtained (about 10 mg/ml)): absence of any antielastase activity
